Data: BindingDB's records for doi:10.7270/Q2TX3CTT (Broad Institute, 2010)
Where a name gives a salt, the structure may show the parent alone.

Biological target: Glycogen synthase kinase-3 beta (Homo sapiens, UniProt P49841)
Assay: concentration-response blocking of human GSK3B – biochemical, luminescence, cell-free homogeneous, retest, dose response (AID 434954)

Chain of Glycogen synthase kinase-3 beta (P49841 whole entry): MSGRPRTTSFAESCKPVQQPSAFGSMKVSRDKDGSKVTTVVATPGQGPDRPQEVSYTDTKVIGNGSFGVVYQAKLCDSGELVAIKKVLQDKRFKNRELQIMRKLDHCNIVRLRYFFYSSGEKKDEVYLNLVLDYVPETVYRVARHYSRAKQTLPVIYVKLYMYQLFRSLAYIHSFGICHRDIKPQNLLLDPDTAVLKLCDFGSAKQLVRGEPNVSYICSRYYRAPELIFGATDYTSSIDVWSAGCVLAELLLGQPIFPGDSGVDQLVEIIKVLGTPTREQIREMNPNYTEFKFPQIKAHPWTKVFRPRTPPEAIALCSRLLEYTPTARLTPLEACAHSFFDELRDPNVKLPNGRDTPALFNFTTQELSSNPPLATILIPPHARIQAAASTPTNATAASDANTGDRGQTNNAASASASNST

Compound	EC50
CC(C)c1ccc(NS(=O)(=O)c2ccc(Cl)nc2)cc1 [6-chloro-N-(4-propan-2-ylphenyl)pyridine-3-sulfonamide]	> 300 µM
COC(=O)CSc1ncnc2c1sc1nc(N3CCOCC3)c3c(c12)CCCC3 [MLS000535174]	> 300 µM
CCN(CC)CCCNc1nc(N)c([N+](=O)[O-])c(NCCO)n1 [SMR000436737]	> 300 µM
CCSc1nnc(-c2ccncc2)o1 [4-(5-Ethylsulfanyl-[1,3,4]oxadiazol-2-yl)-pyridine]	> 300 µM
O=C(C1CCCO1)N1N=C(c2ccc(Br)cc2)CC1c1ccco1 (stereo unspecified) [MLS000699386]	> 300 µM
CC(=O)Nc1ccc(Cc2nc3c([nH]2)c(=O)n(C)c(=O)n3C)cc1 [SMR000528148]	> 300 µM
O=C(OCCCCOC(=O)c1ccccc1)c1ccccc1 [SMR000459786]	> 300 µM
O=C(Cn1cc[n+](CC(=O)c2ccc(Cl)cc2Cl)c1)c1ccc(Cl)cc1Cl [1,3-Bis-[2-(2,4-dichloro-phenyl)-2-oxo-ethyl]-3H-imidazol-1-ium]	> 300 µM
Cc1nc(NCCCn2ccnc2)c2ccccc2n1 [N-(3-imidazol-1-ylpropyl)-2-methyl-quinazolin-4-amine;hydrochloride]	> 300 µM
CC(C)N(Cc1nnc(-c2ccc(Cl)cc2)o1)C(=O)C1=COCCO1	> 300 µM
Cc1ccc(S(=O)(=O)N(C)C)cc1NC(=O)c1ccc(OC(F)(F)F)cc1 [SMR000247294]	> 300 µM
Nc1nnc(CC(=O)NN=Cc2ccccc2OCc2ccc(F)cc2)s1 [SMR000420435]	> 300 µM
Nc1nonc1-n1nnc(C(=O)NN=Cc2ccc(Br)cc2)c1CN1CCOCC1 [SMR000646504]	> 300 µM
COc1ccc(NC(=O)c2ccc(-c3ccc(OC)cc3)s2)cc1 [SMR000335035]	> 300 µM
Oc1cc(-c2c[nH]c3ccccc23)c(O)n1-c1ccccc1 [MLS000121758]	> 300 µM
O=C(COc1ccccc1[N+](=O)[O-])NN=Cc1ccncc1	> 300 µM
CCn1nc(NC(=O)c2cccs2)c2cc3ccccc3nc21 [MLS000674383]	> 300 µM
CCOC(=O)c1c(C)[nH]c(C)c1C(=O)CN1C(=O)NC(CC(C)C)C1=O (stereo unspecified) [ethyl 2,5-dimethyl-4-[2-[4-(2-methylpropyl)-2,5-dioxoimidazolidin-1-yl]acetyl]-1H-pyrrole-3-carboxylate]	> 300 µM

Compound	EC50
CCOC(=O)/C(C#N)=C/c1cn(CCC(=O)O)nc1-c1cccc(Cl)c1 [3-[3-(3-chlorophenyl)-4-[(E)-2-cyano-3-ethoxy-3-oxidanylidene-prop-1-enyl]pyrazol-1-yl]propanoic acid]	> 300 µM
COCCOC(=O)C1C(C)=Nc2ncnn2C1c1ccccc1 (stereo unspecified)	> 300 µM
COc1ccc(-c2nn(-c3ccccc3)cc2C=NNC(N)=S)cc1OC [[[3-(3,4-dimethoxyphenyl)-1-phenyl-4-pyrazolyl]methylideneamino]thiourea]	> 300 µM
COc1cc(C=NNC(=O)COc2ccccc2[N+](=O)[O-])ccc1OC(=O)c1ccco1 [SMR000204365]	> 300 µM
CCOC(=O)c1ccc(NS(=O)(=O)c2ccc3c(c2)NC(=O)CCS3)cc1 [SMR000630284]	> 300 µM
CCCN(CCC)c1nc(N)nc(-c2cc(Cl)ccc2OC)n1 [MLS000538209]	> 300 µM
CN(C)c1nc2c(N)ncnc2n1[C@H]1O[C@@H](CO)[C@H](O)[C@@H]1O [MLS001181978]	> 300 µM
CC(C)(C)c1ccc(C=Nn2cnnc2)cc1 [MLS000660819]	> 300 µM
COc1ccc(/C=C2/Sc3ccc(C(=O)NCCN4CCCCCC4)cc3NC2=O)cc1 [(2E)-N-[2-(azepan-1-yl)ethyl]-2-[(4-methoxyphenyl)methylidene]-3-oxo-4H-1,4-benzothiazine-6-carboxamide]	> 300 µM
N#CC(=Cc1c[nH]nc1-c1ccc(Br)cc1)C(=O)O [(Z)-3-[5-(4-bromophenyl)-1H-pyrazol-4-yl]-2-cyanoprop-2-enoic acid]	> 300 µM
O=C(O)CCn1cc(/C=C\C(=O)c2ccc(Cl)cc2)c(-c2cccc(Br)c2)n1 [3-[3-(3-bromophenyl)-4-[(Z)-3-(4-chlorophenyl)-3-oxoprop-1-enyl]pyrazol-1-yl]propanoic acid]	> 300 µM
Cc1csc(NC(=O)CN2C(=O)c3ccccc3C2=O)c1C(N)=O [2-[[2-(1,3-dioxo-2-isoindolyl)-1-oxoethyl]amino]-4-methyl-3-thiophenecarboxamide]	> 300 µM
NC(=O)c1c(NC(=O)CN2C(=O)CCC2=O)sc2c1CCCCC2 [SMR000018552]	> 300 µM
COc1ccc(-c2nn(-c3ccccc3)cc2C=NN=C(N)N)cc1OC [SMR000261891]	> 300 µM
Cc1cc(NC(=O)CSc2ccc3nnc(-c4cccs4)n3n2)no1	> 300 µM
O=C(NN=Cc1cc(Br)ccc1O)c1ccccc1Cl [N'-[(E)-(3-bromo-6-oxocyclohexa-2,4-dien-1-ylidene)methyl]-2-chlorobenzohydrazide]	> 300 µM
CCc1nn(CC(=O)NCCN2CCOCC2)c(=O)c2cc3c(OC)cccc3n12 [2-(4-ethyl-9-methoxy-1-oxidanylidene-[1,2,4]triazino[4,5-a]indol-2-yl)-N-(2-morpholin-4-ylethyl)ethanamide]	> 300 µM

The remaining lines, values ahead:

EC50	Compound
21.4 µM	Cc1ccnc(NC(=O)Cc2ccc([N+](=O)[O-])cc2)c1 [N-(4-methylpyridin-2-yl)-2-(4-nitrophenyl)ethanamide]
> 300 µM	c1ccc(Nc2nc(-c3ccccc3)nc3ccccc23)cc1 [N,2-diphenylquinazolin-4-amine]
1.15 µM	COc1ccc(S(=O)(=O)Nc2c(C(=O)O)[nH]c3ccc(OC)cc23)c(OC)c1 [SMR000650153]
> 300 µM	O=Cc1cn(CCC(=O)O)nc1-c1cccc(Br)c1 [3-[3-(3-bromophenyl)-4-formylpyrazol-1-yl]propanoic acid]
3.01 µM	Nc1nc(NCCOCCO)nc(NC2CCCCC2)c1[N+](=O)[O-] [SMR000540405]
> 300 µM	O=C(NCCCn1ccnc1)c1ccco1
> 300 µM	CCn1nc(NC(=O)C2CCCO2)c2cc3cc(C)ccc3nc21 (stereo unspecified) [N-(1-ethyl-6-methyl-pyrazolo[3,4-b]quinolin-3-yl)oxolane-2-carboxamide]
43.8 µM	O=C(Nc1nc2ccc(Cl)cc2s1)C1CC1 [N-(6-chloranyl-1,3-benzothiazol-2-yl)cyclopropanecarboxamide]
> 300 µM	Cc1nc(C)c(-c2csc(Nc3ccc(C(=O)O)c(O)c3)n2)s1 [4-[[4-(2,4-dimethyl-1,3-thiazol-5-yl)-1,3-thiazol-2-yl]amino]-2-hydroxybenzoic acid]
> 300 µM	O=C(c1cc(COc2ccc(F)cc2F)on1)N1CCCC(c2ccccc2)C1 (stereo unspecified) [[5-[[2,4-bis(fluoranyl)phenoxy]methyl]-1,2-oxazol-3-yl]-(3-phenylpiperidin-1-yl)methanone]
> 300 µM	CC(=O)N1CCc2c(sc(NC(=O)CS(=O)(=O)c3ccc(F)cc3)c2C(N)=O)C1 [SMR000808580]
> 300 µM	CCOC(=O)/C(C#N)=C/c1cn(CCC(=O)O)nc1-c1ccccc1 [3-[4-[(E)-2-cyano-3-ethoxy-3-oxoprop-1-enyl]-3-phenyl-1-pyrazolyl]propanoic acid]
> 300 µM	COCCN(CC(=O)NCc1ccc(F)cc1)C(=O)CCC(=O)Nc1ccccn1
> 300 µM	CCN(CC)C(=O)COC(=O)c1ccc(O)cc1 [[2-(diethylamino)-2-oxoethyl] 4-hydroxybenzoate]
0.116 µM	CN(C)Cc1c(C(=O)NN=Cc2ccccc2OCc2c(F)cccc2Cl)nnn1-c1nonc1N [1-(4-azanyl-1,2,5-oxadiazol-3-yl)-N-[[2-[(2-chloranyl-6-fluoranyl-phenyl)methoxy]phenyl]methylideneamino]-5-[(dimethylamino)methyl]-1,2,3-triazole-4-carboxamide]
24.8 µM	O=C1CN(c2nc(-c3cccnc3)nc3sc4c(c23)CCCC4)CCN1 [MLS000772211]

EC50	Compound
15.4 µM	O=C(c1ccc(Br)cc1)c1coc2ccc(O)cc12 [MLS001178337]
> 300 µM	COc1ccccc1NC(=O)C(C)Nc1ccc(C)c(Cl)c1 (stereo unspecified)
> 300 µM	CCc1n[nH]c(=S)n1N=CC(C)=Cc1ccccc1 [MLS001164489]
3.04 µM	O=C1N=C(NCc2ccccc2)SC1=Cc1ccc(O)cc1 [SMR000217101]
156 µM	COc1ccccc1N1CCN(CCCNC(=O)C2CCCN(c3ncnc4c3nc3n4CCCCC3)C2)CC1 (stereo unspecified) [N-[3-[4-(2-methoxyphenyl)piperazin-1-yl]propyl]-1-(7,8,9,10-tetrahydro-6H-purino[9,8-a]azepin-4-yl)piperidine-3-carboxamide]
19 µM	COc1cccc(-c2c(C(=O)NN=C(C)c3ccncc3)nnn2-c2nonc2N)c1 [1-(4-amino-1,2,5-oxadiazol-3-yl)-5-(3-methoxyphenyl)-N-(1-pyridin-4-ylethylideneamino)-4-triazolecarboxamide]
18.4 µM	Nc1ncc([N+](=O)[O-])c(N2CCCCCC2)n1 [MLS001174873]
0.662 µM	COc1ccc(Nc2nc(N)c(C(=O)c3ccc(F)cc3)s2)cc1 [{4-amino-2-[(4-methoxyphenyl)amino]-1,3-thiazol-5-yl}(4-fluorophenyl)methanone]
17.4 µM	CCCC1=Nc2ncnn2C(c2ccco2)C1C(=O)OCC (stereo unspecified) [ethyl 7-(furan-2-yl)-5-propyl-1,7-dihydro-[1,2,4]triazolo[1,5-a]pyrimidine-6-carboxylate]
14.5 µM	O=C(Nc1ccncc1)c1ccccc1-c1ccccc1 [MLS000672259]
26.2 µM	CC(=O)N1CCc2c(sc(NC(=O)CCS(=O)(=O)c3ccc(C)cc3)c2C(N)=O)C1 [6-ethanoyl-2-[3-(4-methylphenyl)sulfonylpropanoylamino]-5,7-dihydro-4H-thieno[2,3-c]pyridine-3-carboxamide]
2.18 µM	CN(C)Cc1c(C(=O)NN=Cc2ccoc2)nnn1-c1nonc1N [1-(4-amino-1,2,5-oxadiazol-3-yl)-5-[(dimethylamino)methyl]-N-(3-furanylmethylideneamino)-4-triazolecarboxamide]
2.16 µM	Nc1nc(NC2CCCCC2)nc(NCCO)c1[N+](=O)[O-] [2-[[6-amino-2-(cyclohexylamino)-5-nitro-4-pyrimidinyl]amino]ethanol]
24.2 µM	COc1ccc(CNC(=O)CN(Cc2ccccc2)C(=O)CCC(=O)Nc2ccccn2)cc1
31.4 µM	N=C(N)N/N=C1/C(=O)Nc2ccc(Br)cc21 [2-[(5-bromo-2-oxo-3-indolyl)amino]guanidine;hydrochloride]
